Patent US6204220A, “Substituted 2-oxo-3-alkynoic acids and methods of use thereof” (Rutgers, The State University of New Jersey, priority 1999, dated 2001)

Columns and labels:
[1] = molecular target: T1, E1 (Escherichia coli, UniProt P0AFG8); experiment: Fluorescence measurements on binding to E1; parameters: species or system E. coli
T1 construct: made in house; host or cells: resolved from PDHc expressed in E. coli JRG1342
Protocol: Fluorescence measurements on the binding of 2-oxo-3-butynoic acid to E1. The fluorescence spectrum of apo-E1 (enzyme having no activity in the absence of ThDP) was measured using the SLM8100 spectrofluorimeter at 25° C. The excitation wavelength was 295 nm and the emission spectrum, presumably due to tryptophan, was recorded in the 300-450 nm range in a 1 mL or 3 mL quartz cuvette. The concentration of apo-E1 was 0.05-0.175 mg/mL in 20 mM KH2 PO4 buffer, pH 7.5. The excitation and emission monochromator slit widths were 4 nm. The V.3.0 software and KaleidaGraph computer program were used for data processing. The emission maximum for tryptophan (λ=335 nm) was determined by fitting the points from the peak using the KaleidaGraph computer program.

[2] = Chemical stability of inhibitor on incubation in buffer before inactivation test; format: physicochemical; details: 1 mM, room temperature, 20 mM KH2PO4 pH 7.5, 1 mM ThDP, 5 mM MgCl2, up to 28 min
Protocol: Kinetics of inactivation of 1-lip and 3-lip PDH complexes and resolved E1 in the presence of 2-oxo-3-alkynoic acids. Three analogs of pyruvate were tested as potential inhibitors of the PDHc and resolved E1: 2-oxo-3-butynoic acid; 2-oxo-3-pentynoic acid; and 2-oxo-3-heptynoic acid. Incubation in the presence of saturating ThDP (1 mM) and MgCl2 (5 mM) with any of the three compounds led to the loss of overall activity in a time- and concentration-dependent fashion. The plots of remaining activity versus time were biphasic: a rapid phase of inactivation was followed either by a slow phase at high concentrations of inhibitor or a plateau at low concentrations of inhibitor, as shown for 1-lip PDHc and resolved E1 with 2-oxo-3-butynoic acid in FIGS. 1A and 1B. The biphasic kinetics may be due to chemical instability of the inhibitors, especially 2-oxo-3-butynoic acid. […] When a fresh portion of 2-oxo-3-butynoicacid was added to PDHc whose activity had plateaued at about 30%, the activity rapidly declined to a new plateau at 6-8% of the original activity. In contrast, the PDHc activity continued to decline at a low rate when fresh 1-lip PDHc was added to the sample that had already declined to 30% (data not shown).

T1 sequence (P0AFG8 2-887): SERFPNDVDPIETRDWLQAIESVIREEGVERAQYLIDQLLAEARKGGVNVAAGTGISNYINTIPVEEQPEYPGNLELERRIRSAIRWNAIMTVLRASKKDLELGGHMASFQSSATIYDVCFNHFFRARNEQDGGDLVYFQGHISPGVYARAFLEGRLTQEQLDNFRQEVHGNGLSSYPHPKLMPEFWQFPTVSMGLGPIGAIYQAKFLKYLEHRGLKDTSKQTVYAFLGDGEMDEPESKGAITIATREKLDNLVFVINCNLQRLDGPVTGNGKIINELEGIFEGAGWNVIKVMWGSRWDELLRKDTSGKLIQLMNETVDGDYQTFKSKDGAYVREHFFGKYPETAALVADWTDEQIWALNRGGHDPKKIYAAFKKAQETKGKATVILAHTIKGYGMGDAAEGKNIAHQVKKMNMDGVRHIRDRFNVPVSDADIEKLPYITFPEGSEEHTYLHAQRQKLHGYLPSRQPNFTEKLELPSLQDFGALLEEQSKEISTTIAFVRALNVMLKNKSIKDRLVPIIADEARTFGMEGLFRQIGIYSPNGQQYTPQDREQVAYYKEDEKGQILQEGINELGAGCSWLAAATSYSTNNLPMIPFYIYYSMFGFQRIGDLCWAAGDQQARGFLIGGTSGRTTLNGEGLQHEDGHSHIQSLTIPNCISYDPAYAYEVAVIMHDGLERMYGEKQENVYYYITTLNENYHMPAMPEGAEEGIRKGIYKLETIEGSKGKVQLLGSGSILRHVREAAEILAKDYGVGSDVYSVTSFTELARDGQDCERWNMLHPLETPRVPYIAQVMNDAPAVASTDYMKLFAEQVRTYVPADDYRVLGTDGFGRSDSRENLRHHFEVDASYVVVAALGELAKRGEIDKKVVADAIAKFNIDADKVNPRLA

SMILES: C#CC(=O)C(=O)O [2-oxo-3-butynoic acid, 2-Oxo-3-butynoic acid]
- decrease of fluorescence intensity ([1]; 0.033 mM inhibitor): about 35%
- decrease of fluorescence intensity ([1]; 0.1 mM inhibitor): 66%
- decrease of fluorescence intensity of E1 at 335 nm ([1]; 0.11 mM, E1 0.173 mg/ml, ThDP 0.2 mM, MgCl2 1 mM): about 66%
- first-order rate constant of fluorescence intensity decrease, slow phase ([1]; absence of added ThDP, 0.11 mM): 0.042 min⁻¹
- effect of incubating the inhibitor in buffer on its ability to inactivate 1-lip PDHc [2]: no significant effect
